Literature values as cited in paper PMC12383022, “Discovery of a Novel Antimicrobial Peptide from Paenibacillus sp. Na14 with Potent Activity Against Gram-Negative Bacteria and Genomic Insights into Its Biosynthetic Pathway” (Antibiotics, 2025).

What was measured:
[1] = test system: E. coli ATCC 25922; settings: cited from earlier work
[2] = test system: MRSA ATCC 15975; settings: cited from earlier work
[3] = test system: P. aeruginosa LMG6395; settings: cited from earlier work
[4] = test system: MRSA; settings: 10× MIC; cited from earlier work
[5] = test system: K. pneumoniae LMG20218; settings: cited from earlier work

brevibacillin 2V
MIC, E. coli ATCC 25922 [1]: 16 µg/mL | MIC, MRSA ATCC 15975 [2]: 2 µg/mL | MIC, P. aeruginosa LMG6395 [3]: 64 µg/mL | time to complete killing of MRSA [4]: ≤ 6 h | MIC, K. pneumoniae LMG20218 [5]: 32 µg/mL
